Laboratory results as given in ChEMBL document CHEMBL4680342, “Discovery of DB18, a potent inhibitor of CLK kinases with a high selectivity against DYRK1A kinase” (Bioorg Med Chem, 2021).

Key:
[1] = molecular target: Cyclin-dependent kinase 5/CDK5 activator 1 (Homo sapiens) (UniProt Q00535+Q15078); experiment: Inhibition of human CDK5/p25 assessed as residual activity at 10 uM by ADP-Glo assay relative to control; assay type: protein-complex assay
[2] = molecular target: CDK9/cyclin T1 (Homo sapiens) (UniProt O60563+P50750); experiment: Inhibition of human CDK9/CyclinT assessed as residual activity at 10 uM by ADP-Glo assay relative to control; assay type: protein-complex assay
[3] = molecular target: Serine/threonine-protein kinase pim-1 (Homo sapiens) (UniProt P11309); experiment: Inhibition of human PIM1 assessed as residual activity at 10 uM by ADP-Glo assay relative to control
Sequence of Serine/threonine-protein kinase pim-1 (Homo sapiens) (P11309 whole entry, looked up): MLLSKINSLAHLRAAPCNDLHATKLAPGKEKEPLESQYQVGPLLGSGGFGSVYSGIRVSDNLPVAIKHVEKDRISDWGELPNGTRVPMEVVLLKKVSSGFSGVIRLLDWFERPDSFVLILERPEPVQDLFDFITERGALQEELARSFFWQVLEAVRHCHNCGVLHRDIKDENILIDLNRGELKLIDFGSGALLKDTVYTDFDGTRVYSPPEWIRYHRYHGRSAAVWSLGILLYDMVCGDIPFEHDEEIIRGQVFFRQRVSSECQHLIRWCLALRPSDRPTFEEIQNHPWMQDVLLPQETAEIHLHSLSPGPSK

[4] = molecular target: Dual specificity protein kinase CLK1 (Mus musculus) (UniProt P22518); experiment: Inhibition of mouse CLK1 assessed as residual activity at 10 uM by ADP-Glo assay relative to control
Sequence of Dual specificity protein kinase CLK1 (Mus musculus) (P22518 whole entry, looked up, the tested form may be a part): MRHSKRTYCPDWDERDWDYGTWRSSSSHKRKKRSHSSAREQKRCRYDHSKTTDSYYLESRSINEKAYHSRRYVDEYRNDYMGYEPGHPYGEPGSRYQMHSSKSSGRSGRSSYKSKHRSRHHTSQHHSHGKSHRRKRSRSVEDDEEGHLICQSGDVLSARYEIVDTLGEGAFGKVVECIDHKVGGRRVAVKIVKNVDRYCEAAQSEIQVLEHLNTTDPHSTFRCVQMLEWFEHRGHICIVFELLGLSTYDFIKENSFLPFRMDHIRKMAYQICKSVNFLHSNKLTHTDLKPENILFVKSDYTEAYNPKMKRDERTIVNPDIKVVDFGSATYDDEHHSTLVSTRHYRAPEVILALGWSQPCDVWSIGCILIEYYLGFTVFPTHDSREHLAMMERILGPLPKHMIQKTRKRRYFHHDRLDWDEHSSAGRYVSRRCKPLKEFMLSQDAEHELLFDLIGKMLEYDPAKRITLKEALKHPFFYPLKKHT

[5] = molecular target: T1, Serine/threonine-protein kinase haspin (Homo sapiens) (UniProt Q8TF76); experiment: Inhibition of human HASPIN assessed as residual activity at 10 uM by ADP-Glo assay relative to control
T1 sequence (whole entry): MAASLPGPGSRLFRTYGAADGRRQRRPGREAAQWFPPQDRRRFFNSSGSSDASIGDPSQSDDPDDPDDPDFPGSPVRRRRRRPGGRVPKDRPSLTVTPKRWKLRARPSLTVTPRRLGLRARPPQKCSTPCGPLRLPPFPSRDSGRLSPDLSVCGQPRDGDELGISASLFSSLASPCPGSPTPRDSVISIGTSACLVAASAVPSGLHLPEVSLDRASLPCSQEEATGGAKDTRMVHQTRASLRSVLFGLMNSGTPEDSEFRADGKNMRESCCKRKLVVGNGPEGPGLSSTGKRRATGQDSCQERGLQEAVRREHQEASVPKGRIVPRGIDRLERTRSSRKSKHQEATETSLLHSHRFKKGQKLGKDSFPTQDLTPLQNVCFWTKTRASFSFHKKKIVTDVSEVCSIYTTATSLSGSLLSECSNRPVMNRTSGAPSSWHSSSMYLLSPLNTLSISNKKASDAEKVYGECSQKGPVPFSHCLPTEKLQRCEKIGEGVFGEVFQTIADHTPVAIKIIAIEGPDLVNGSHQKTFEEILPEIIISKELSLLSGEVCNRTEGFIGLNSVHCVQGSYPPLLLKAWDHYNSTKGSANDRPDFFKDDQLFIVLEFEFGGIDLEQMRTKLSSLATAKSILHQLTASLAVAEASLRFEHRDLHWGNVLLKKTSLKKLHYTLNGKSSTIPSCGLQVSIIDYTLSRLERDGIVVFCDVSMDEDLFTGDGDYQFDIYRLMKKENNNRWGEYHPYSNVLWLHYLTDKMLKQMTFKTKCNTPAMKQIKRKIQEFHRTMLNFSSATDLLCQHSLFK

[6] = molecular target: Dual specificity tyrosine-phosphorylation-regulated kinase 1A (Homo sapiens, UniProt Q13627); experiment: Inhibition of human DYRK1A at 100 uM by ADP-Glo assay
[7] = molecular target: Dual specificity tyrosine-phosphorylation-regulated kinase 1B (Homo sapiens, UniProt Q9Y463); experiment: Inhibition of human DYRK1B at 100 uM by ADP-Glo assay
Sequence of Dual specificity tyrosine-phosphorylation-regulated kinase 1B (Q9Y463 whole entry): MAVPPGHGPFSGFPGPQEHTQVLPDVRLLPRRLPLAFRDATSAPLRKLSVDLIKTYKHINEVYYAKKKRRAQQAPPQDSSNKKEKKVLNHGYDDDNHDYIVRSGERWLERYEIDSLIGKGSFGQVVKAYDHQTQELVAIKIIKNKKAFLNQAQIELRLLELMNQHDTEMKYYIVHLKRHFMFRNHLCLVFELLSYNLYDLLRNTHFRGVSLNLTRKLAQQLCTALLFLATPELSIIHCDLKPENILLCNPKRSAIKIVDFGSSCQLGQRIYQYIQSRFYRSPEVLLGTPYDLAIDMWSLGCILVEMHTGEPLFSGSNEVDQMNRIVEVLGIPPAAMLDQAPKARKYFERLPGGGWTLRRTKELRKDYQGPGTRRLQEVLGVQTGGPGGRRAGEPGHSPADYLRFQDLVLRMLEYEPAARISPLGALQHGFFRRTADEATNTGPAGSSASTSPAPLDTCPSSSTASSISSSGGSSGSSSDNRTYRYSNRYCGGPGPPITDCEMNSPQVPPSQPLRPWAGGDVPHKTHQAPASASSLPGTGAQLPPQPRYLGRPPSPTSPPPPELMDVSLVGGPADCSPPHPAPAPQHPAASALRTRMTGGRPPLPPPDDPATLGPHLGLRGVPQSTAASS

[8] = molecular target: T2, Dual specificity tyrosine-phosphorylation-regulated kinase 2 (Homo sapiens, UniProt Q92630); experiment: Inhibition of human DYRK2 at 100 uM by ADP-Glo assay
T2 sequence (Q92630 whole entry): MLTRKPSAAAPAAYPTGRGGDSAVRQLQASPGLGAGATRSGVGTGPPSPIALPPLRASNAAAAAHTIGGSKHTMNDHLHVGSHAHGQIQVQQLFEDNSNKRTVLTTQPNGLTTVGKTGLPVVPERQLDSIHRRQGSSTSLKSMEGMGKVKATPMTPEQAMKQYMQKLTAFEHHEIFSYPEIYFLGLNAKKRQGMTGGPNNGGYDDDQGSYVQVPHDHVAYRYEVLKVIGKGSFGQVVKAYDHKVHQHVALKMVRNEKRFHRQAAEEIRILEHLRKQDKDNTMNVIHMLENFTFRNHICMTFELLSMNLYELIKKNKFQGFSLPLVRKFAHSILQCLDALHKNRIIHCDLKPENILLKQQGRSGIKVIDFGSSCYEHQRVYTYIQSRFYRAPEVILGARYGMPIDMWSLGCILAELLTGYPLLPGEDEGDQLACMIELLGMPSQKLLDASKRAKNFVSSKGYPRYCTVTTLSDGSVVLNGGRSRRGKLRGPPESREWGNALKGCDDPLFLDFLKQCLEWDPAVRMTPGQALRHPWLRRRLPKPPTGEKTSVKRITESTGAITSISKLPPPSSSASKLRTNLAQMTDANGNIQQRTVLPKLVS

[9] = molecular target: Dual specificity tyrosine-phosphorylation-regulated kinase 1A (Rattus norvegicus, UniProt Q63470); experiment: Inhibition of rat DYRK1A (1 to 499 residues) assessed as residual activity at 100 uM by ADP-Glo assay
[10] = molecular target: Dual specificity protein kinase CLK1 (Mus musculus) (UniProt P22518); experiment: Inhibition of mouse CLK1 assessed as residual activity by ADP-Glo assay
[11] = molecular target: DYRK1A (dual specificity tyrosine-phosphorylation-regulated kinase 1A) (Rattus norvegicus, UniProt Q63470); experiment: Inhibition of rat DYRK1A (1 to 499 residues) assessed as residual activity at 10 uM by ADP-Glo assay relative to control; details: rat DYRK1A enzyme (residues 1 to 499), read-out: Activity
[12] = molecular target: Glycogen synthase kinase-3 beta (Homo sapiens) (UniProt P49841); experiment: Inhibition of human GSK3beta assessed as residual activity at 10 uM by ADP-Glo assay relative to control
Sequence of Glycogen synthase kinase-3 beta (Homo sapiens) (P49841 whole entry, looked up, canonical isoform): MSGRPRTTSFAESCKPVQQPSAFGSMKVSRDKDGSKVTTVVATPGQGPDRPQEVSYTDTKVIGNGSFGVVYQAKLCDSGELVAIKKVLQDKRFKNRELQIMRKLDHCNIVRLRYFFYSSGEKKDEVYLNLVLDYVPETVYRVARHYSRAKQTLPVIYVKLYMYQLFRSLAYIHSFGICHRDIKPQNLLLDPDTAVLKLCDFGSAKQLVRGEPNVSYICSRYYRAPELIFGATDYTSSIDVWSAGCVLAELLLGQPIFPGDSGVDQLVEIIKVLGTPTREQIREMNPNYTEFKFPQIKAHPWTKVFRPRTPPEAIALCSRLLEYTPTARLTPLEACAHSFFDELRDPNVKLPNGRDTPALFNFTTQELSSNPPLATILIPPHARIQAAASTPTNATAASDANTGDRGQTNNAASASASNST

[13] = molecular target: Casein kinase I isoform epsilon (Homo sapiens) (UniProt P49674); experiment: Inhibition of human CK1epsilon assessed as residual activity at 10 uM by ADP-Glo assay relative to control
Sequence of Casein kinase I isoform epsilon (Homo sapiens) (P49674 whole entry, looked up, canonical isoform): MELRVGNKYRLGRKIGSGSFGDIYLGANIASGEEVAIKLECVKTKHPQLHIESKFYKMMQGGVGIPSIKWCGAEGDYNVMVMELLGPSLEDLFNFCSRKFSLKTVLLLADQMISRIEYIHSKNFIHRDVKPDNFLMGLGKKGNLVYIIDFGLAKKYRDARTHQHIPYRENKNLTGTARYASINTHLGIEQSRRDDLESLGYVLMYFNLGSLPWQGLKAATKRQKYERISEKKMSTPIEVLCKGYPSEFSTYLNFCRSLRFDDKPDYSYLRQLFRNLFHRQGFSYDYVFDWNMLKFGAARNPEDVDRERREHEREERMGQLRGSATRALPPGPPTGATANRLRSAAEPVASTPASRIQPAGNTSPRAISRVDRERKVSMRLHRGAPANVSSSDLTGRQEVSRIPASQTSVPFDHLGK

Huh-7 = experiment: cells; details: Homo sapiens, Huh-7, 48 h
Caco-2 = experiment: cells; details: Homo sapiens, Caco-2, 48 h
MDA-MB-231 = experiment: cells; details: Homo sapiens, MDA-MB-231, 48 h
Description: Cytotoxicity against human MDA-MB-231 cells assessed as reduction in cell viability incubated for 48 hrs by Hoechst-33342 staining based cell counting method (Rvb > 25 microM)

HCT-116 = experiment: cells; details: Homo sapiens, HCT-116, 48 h
Description: Cytotoxicity against human HCT-116 cells assessed as reduction in cell viability incubated for 48 hrs by Hoechst-33342 staining based cell counting method (Rvb > 25 microM)

PC-3 = experiment: cells; details: Homo sapiens, PC-3, 48 h
Description: Cytotoxicity against human PC-3 cells assessed as reduction in cell viability incubated for 48 hrs by Hoechst-33342 staining based cell counting method (Rvb > 25 microM)

NCI-H727 = experiment: cells; details: Homo sapiens, NCI-H727, 48 h
Description: Cytotoxicity against human NCI-H727 cells assessed as reduction in cell viability incubated for 48 hrs by Hoechst-33342 staining based cell counting method (Rvb > 25 microM)

Fibroblast = experiment: cells; details: Homo sapiens, 48 h
Description: Cytotoxicity against human Fibroblast cells assessed as reduction in cell viability incubated for 48 hrs by Hoechst-33342 staining based cell counting method (Rvb > 25 microM)

MCF7 = experiment: cells; details: Homo sapiens, MCF7, 48 h

Sequence of Cyclin-dependent kinase 5/CDK5 activator 1 (Homo sapiens) (Q00535 whole entry): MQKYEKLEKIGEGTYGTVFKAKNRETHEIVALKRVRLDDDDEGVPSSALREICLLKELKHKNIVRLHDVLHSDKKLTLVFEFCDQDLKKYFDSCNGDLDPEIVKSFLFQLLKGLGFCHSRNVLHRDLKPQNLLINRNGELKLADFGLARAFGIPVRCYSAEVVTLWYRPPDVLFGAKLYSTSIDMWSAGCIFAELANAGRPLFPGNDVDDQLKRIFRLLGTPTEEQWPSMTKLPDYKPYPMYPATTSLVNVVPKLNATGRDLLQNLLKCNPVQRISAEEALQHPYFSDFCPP
Sequence of Cyclin-dependent kinase 5/CDK5 activator 1 (Homo sapiens) (Q15078 99-307 partner limits assumed): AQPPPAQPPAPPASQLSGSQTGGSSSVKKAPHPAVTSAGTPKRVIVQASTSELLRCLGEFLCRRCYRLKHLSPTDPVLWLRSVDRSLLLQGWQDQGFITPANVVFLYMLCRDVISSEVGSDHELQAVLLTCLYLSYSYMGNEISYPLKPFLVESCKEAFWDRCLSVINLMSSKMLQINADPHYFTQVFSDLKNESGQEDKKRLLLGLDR

Row | SMILES | Activity [1] [%] | Activity [2] [%] | Activity [3] [%] | Activity [4] [%] | Activity [5] [%] | activity at 10 µM [11] [%] | Activity [12] [%] | Activity [13] [%] | IC50 (Huh-7) [µM] | IC50 (Caco-2) [µM] | IC50 (MDA-MB-231) [µM] | IC50 (HCT-116) [µM] | IC50 (PC-3) [µM] | IC50 (NCI-H727) [µM] | IC50 (MCF7) [µM] | IC50 (Fibroblast) [µM] | also measured
1 | Cc1ccc(-n2cc(COc3cccc4cnc(Nc5cccc(Cl)c5)nc34)nn2)c([N+](=O)[O-])c1 | 84 | 54 | 81 | 11 | 94 | – | – | – | – | – | – | – | – | – | – | – | inhibition (INH) [6]: Not Active; inhibition (INH) [7]: Not Active; inhibition (INH) [8]: Not Active; inhibition (INH) [9]: Not Active; IC50 [10]: 0.12 µM
2 | Clc1cccc(Nc2ncc3cccc(OCc4cn(Cc5ccccc5)nn4)c3n2)c1 | 87 | 100 | 84 | 65 | 83 | 81 | 48 | 79 | – | – | – | – | – | – | – | – | –
3 | COc1cccc(-n2cc(COc3cccc4cnc(Nc5cccc(Cl)c5)nc34)nn2)c1 | 94 | 85 | 79 | 27 | 100 | 87 | 47 | 40 | 23 | 20 | 25 | 23 | 10 | > 25 | 8 | 18 | –
4 | Clc1cccc(Nc2ncc3cccc(OCc4cn(-c5ccc(Br)cc5)nn4)c3n2)c1 | 100 | 81 | 79 | 56 | 100 | 95 | 77 | 79 | 14 | 11 | 33 | 17 | 18 | 8 | 9 | > 25 | –
5 | O=[N+]([O-])c1ccc(Cn2cc(COc3cccc4cnc(Nc5cccc(Cl)c5)nc34)nn2)cc1 | 90 | 72 | 77 | 39 | 76 | 88 | 60 | 65 | – | – | – | – | – | – | – | – | –
6 | CC[C@H](CO)Nc1nc(NCc2ccccc2)c2ncn(C(C)C)c2n1 [SELICICLIB] | – | – | – | – | – | – | – | – | 14 | – | – | – | – | 28 | 9 | 6 | –
7 | Clc1ccc(-n2cc(COc3cccc4cnc(Nc5cccc(Cl)c5)nc34)nn2)cc1 | 100 | 95 | 86 | 85 | 100 | 99 | 87 | 100 | 24 | 24 | > 25 | > 25 | > 25 | > 25 | > 25 | > 25 | –
8 | Clc1cccc(Nc2ncc3cccc(OCc4cn(Cc5c(Cl)cccc5Cl)nn4)c3n2)c1 | 94 | 53 | 97 | 48 | 59 | 75 | 58 | 100 | 7 | 9 | 21 | 24 | 7 | 5 | 6 | 14 | –
9 | O=[N+]([O-])c1ccc(-n2cc(COc3cccc4cnc(Nc5cccc(Cl)c5)nc34)nn2)cc1 | 94 | 63 | 79 | 26 | 100 | 100 | 87 | 86 | – | – | – | – | – | – | – | – | –

Continued, in another order:

Row | Activity [1] [%] | Activity [2] [%] | Activity [3] [%] | Activity [4] [%] | Activity [5] [%] | activity at 10 µM [11] [%] | Activity [12] [%] | Activity [13] [%] | IC50 (Huh-7) [µM] | IC50 (Caco-2) [µM] | IC50 (MDA-MB-231) [µM] | IC50 (HCT-116) [µM] | IC50 (PC-3) [µM] | IC50 (NCI-H727) [µM] | IC50 (MCF7) [µM] | SMILES | IC50 (Fibroblast) [µM] | also measured
10 | – | – | – | – | – | – | – | – | 0.013 | 0.014 | 0.03 | 0.002 | 0.002 | 0.01 | – | CC(=O)O[C@H]1C(=O)[C@@]2(C)[C@H]([C@H](OC(=O)c3ccccc3)[C@]3(O)C[C@H](OC(=O)[C@H](O)[C@@H](NC(=O)c4ccccc4)c4ccccc4)C(C)=C1C3(C)C)[C@]1(OC(C)=O)CO[C@@H]1C[C@@H]2O [PACLITAXEL] | 0.1 | –
11 | 100 | 100 | 69 | 70 | 100 | 94 | 47 | 86 | – | – | – | – | – | – | – | COc1ccc(-n2cc(COc3cccc4cnc(Nc5cccc(Cl)c5)nc34)nn2)cc1 | – | –
12 | – | – | – | – | – | – | – | – | 0.036 | 0.05 | 0.01 | – | 0.06 | – | – | COc1cccc2c1C(=O)c1c(O)c3c(c(O)c1C2=O)C[C@@](O)(C(=O)CO)C[C@@H]3O[C@H]1C[C@H](N)[C@H](O)[C@H](C)O1 [DOXORUBICIN] | 0.015 | –
13 | 90 | 64 | 78 | 81 | 77 | 100 | 35 | 55 | 7 | 8 | 9 | 8 | 8 | 7 | 5 | Clc1cccc(Nc2ncc3cccc(OCc4cn(-c5cc(Cl)cc(Cl)c5)nn4)c3n2)c1 | 8 | –
14 | 40 | 25 | 45 | 16 | 44 | 74 | 14 | 41 | – | – | – | – | – | – | – | Cc1ccc(-n2cc(COc3cccc4cnc(Nc5cccc(Cl)c5)nc34)nn2)cc1[N+](=O)[O-] | – | IC50 [10]: 3 µM
15 | 94 | 74 | 84 | 26 | 100 | 100 | 61 | 96 | 7 | > 25 | > 25 | > 25 | 8 | > 25 | 6 | COc1ccccc1-n1cc(COc2cccc3cnc(Nc4cccc(Cl)c4)nc23)nn1 | > 25 | –
